Measurements published in patent US20240228504A1, “SUBSTITUTED TRICYCLIC AMIDES, ANALOGUES THEREOF, AND METHODS USING SAME” (Arbutus Biopharma Corporation, priority 2020, published 2024).

tested on: HBV rcDNA in HepDE19 cells; assay: HepDE19 assay with bDNA quantitation of HBV rcDNA; assay type: cell-based, hepatitis B virus; conditions: HepDE19 assay, inhibition of rcDNA formation, bDNA quantitation; read-out: DE-19bDNA EC50

Structure (SMILES) | EC50 [nM]
CN(C(=O)c1cc2c(Cl)cc(F)cc2[nH]1)C1COCc2[nH]c(=O)c3cc(F)ccc3c21 (single isomer, unassigned) [Compound 438, 4-Chloro-6-fluoro-N-(8-fluoro-6-oxo-1,4,5,6-tetrahydro-2H-pyrano[3,4-c]isoquinolin-1-yl)-N-methyl-1H-indole-2-carboxamide] | 1700
CN(C(=O)c1cc2c(C(F)F)cccc2[nH]1)C1CNCc2[nH]c(=O)c3cc(F)ccc3c21 (single isomer, unassigned) [Compound 210, N-(8-Fluoro-6-oxo-1,2,3,4,5,6-hexahydrobenzo[c][1,7]naphthyridin-1-yl)-4-(difluoromethyl)-N-methyl-1H-indole-2-carboxamide] | 40
Cc1cccc2[nH]c(C(=O)N(C)C3COCc4[nH]c(=O)c5cc(F)ccc5c43)cc12 (single isomer, unassigned) [Compound 422, N-(8-Fluoro-6-oxo-1,4,5,6-tetrahydro-2H-pyrano[3,4-c]isoquinolin-1-yl)-N,4-dimethyl-1H-indole-2-carboxamide] | 1200
CN1Cc2[nH]c(=O)c3cc(F)ccc3c2C(N(C)C(=O)c2cc3ccccc3[nH]2)C1 (single isomer, unassigned) [Compound 61, N-(8-Fluoro-3-methyl-6-oxo-1,2,3,4,5,6-hexahydrobenzo[c][1,7]naphthyridin-1-yl)-N-methyl-1H-indole-2-carboxamide] | 2300
CN(C(=O)c1cc2sc(F)cc2[nH]1)C1CNCc2[nH]c(=O)c3cc(F)c(F)cc3c21 (single isomer, unassigned) [Compound 500, N-(8,9-difluoro-6-oxo-1,2,3,4,5,6-hexahydrobenzo[c][1,7]naphthyridin-1-yl)-2-fluoro-N-methyl-4H-thieno[3,2-b]pyrrole-5-carboxamide] | 30
CN(C(=O)c1cc(F)c(Br)c(F)c1)C1CNCc2[nH]c(=O)c3cc(F)c(F)cc3c21 (single isomer, unassigned) [Compound 164, 4-Bromo-N-(8,9-difluoro-6-oxo-1,2,3,4,5,6-hexahydrobenzo[c][1,7]naphthyridin-1-yl)-3,5-difluoro-N-methylbenzamide] | 2880
CN(C(=O)c1cc2c(F)cccn2c1)C1C[S+]([O-])Cc2[nH]c(=O)c3cc(F)c(F)cc3c21 (single isomer, unassigned) [Compound 149, N-(8,9-Difluoro-3-oxido-6-oxo-1,4,5,6-tetrahydro-2H-thiopyrano[3,4-c]isoquinolin-1-yl)-8-fluoro-N-methylindolizine-2-carboxamide] | 150
CN(C(=O)c1cc(F)c(Cl)c(F)c1)C1CNCc2[nH]c(=O)c3cc(F)c(F)cc3c21 (single isomer, unassigned) [Compound 168, 4-Chloro-N-(8,9-difluoro-6-oxo-1,2,3,4,5,6-hexahydrobenzo[c][1,7]naphthyridin-1-yl)-3,5-difluoro-N-methylbenzamide] | 11300
CN(C(=O)c1cc2c(Cl)cccn2c1)C1COCc2[nH]c(=O)c3cc(F)c(F)cc3c21 (single isomer, unassigned) [Compound 17, 8-Chloro-N-(8,9-difluoro-6-oxo-1,4,5,6-tetrahydro-2H-pyrano[3,4-c]isoquinolin-1-yl)-N-methylindolizine-2-carboxamide] | 1900
Cc1cccc2[nH]c(C(=O)N(C)C3CNCc4[nH]c(=O)c5cc(F)c(F)cc5c43)cc12 (single isomer, unassigned) [Compound 456, N-(8,9-difluoro-6-oxo-1,2,3,4,5,6-hexahydrobenzo[c][1,7]naphthyridin-1-yl)-N,4-dimethyl-1H-indole-2-carboxamide] | 2200
CN(C(=O)c1cc2cc(F)ccn2c1)C1CNCc2[nH]c(=O)c3cc(F)c(F)cc3c21 (single isomer, unassigned) [Compound 162, N-(8,9-Difluoro-6-oxo-1,2,3,4,5,6-hexahydrobenzo[c][1,7]naphthyridin-1-yl)-7-fluoro-N-methylindolizine-2-carboxamide] | 13800
CN(C(=O)c1cc2c(F)cc(F)cc2[nH]1)C1COCc2[nH]c(=O)c3cc(F)c(F)cc3c21 (single isomer, unassigned) [Compound 44, N-(8,9-Difluoro-6-oxo-1,4,5,6-tetrahydro-2H-pyrano[3,4-c]isoquinolin-1-yl)-4,6-difluoro-N-methyl-1H-indole-2-carboxamide] | 10
CN(C(=O)c1cc2c(F)c(F)ccc2[nH]1)C1COCc2[nH]c(=O)c3cc(F)c(F)cc3c21 (single isomer, unassigned) [Compound 45, N-(8,9-Difluoro-6-oxo-1,4,5,6-tetrahydro-2H-pyrano[3,4-c]isoquinolin-1-yl)-4,5-difluoro-N-methyl-1H-indole-2-carboxamide] | 310

same assay, conditions: Hepatitis B virus, HepDE19, HepDE19 assay, inhibition of rcDNA formation, bDNA quantitation; read-out: DE-19bDNA EC50

Structure (SMILES) | EC50 [nM]
CN(C(=O)c1cc2ccncc2[nH]1)[C@@H]1COCc2[nH]c(=O)c3cc(F)c(F)cc3c21 [Compound 307, (S)-N-(8,9-Difluoro-6-oxo-1,4,5,6-tetrahydro-2H-pyrano[3,4-c]isoquinolin-1-yl)-N-methyl-1H-pyrrolo[2,3-c]pyridine-2-carboxamide] | 200
CN(C(=O)c1cccc(-c2cccc(F)c2)c1)[C@@H]1COCc2[nH]c(=O)c3cc(F)c(F)cc3c21 [Compound 290, (S)-N-(8,9-Difluoro-6-oxo-1,4,5,6-tetrahydro-2H-pyrano[3,4-c]isoquinolin-1-yl)-3′-fluoro-N-methyl-[1,1′-biphenyl]-3-carboxamide] | 2300
CC(C)C(=O)OC1OC[C@@H](N(C)C(=O)c2cc3cc(F)c(F)cc3[nH]2)c2c1[nH]c(=O)c1cc(F)c(F)cc21 (stereo partly drawn) [Compound 300, (1S)-1-(5,6-Difluoro-N-methyl-1H-indole-2-carboxamido)-8,9-difluoro-6-oxo-1,4,5,6-tetrahydro-2H-pyrano[3,4-c]isoquinolin-4-yl isobutyrate] | 10
CN(C(=O)c1cc2cc(F)c(F)cc2n1COP(=O)(OC(C)(C)C)OC(C)(C)C)[C@@H]1COCc2[nH]c(=O)c3cc(F)c(F)cc3c21 [Compound 376, (S)-di-tert-Butyl ((2-((8,9-difluoro-6-oxo-1,4,5,6-tetrahydro-2H-pyrano[3,4-c]isoquinolin-1-yl)(methyl)carbamoyl)-5,6-difluoro-1H-indol-1-yl)methyl)phosphate] | 10
CN(C(=O)c1ccc(F)c(F)c1)[C@@H]1COCc2[nH]c(=O)c3cc(F)c(F)cc3c21 [Compound 92, (S)-N-(8,9-Difluoro-6-oxo-1,4,5,6-tetrahydro-2H-pyrano[3,4-c]isoquinolin-1-yl)-3,4-difluoro-N-methylbenzamide] | 280
Cc1cc(F)cc2[nH]c(C(=O)N(C)[C@@H]3COCc4[nH]c(=O)c5cc(F)c(F)cc5c43)cc12 [Compound 344, (S)-N-(8,9-Difluoro-6-oxo-1,4,5,6-tetrahydro-2H-pyrano[3,4-c]isoquinolin-1-yl)-6-fluoro-N,4-dimethyl-1H-indole-2-carboxamide] | 10
CN(C(=O)c1cnc(C(F)(F)F)c(Cl)c1)[C@@H]1COCc2[nH]c(=O)c3cc(F)ccc3c21 (single isomer, unassigned) [Compound 379, 5-Chloro-N-(8-fluoro-6-oxo-1,4,5,6-tetrahydro-2H-pyrano[3,4-c]isoquinolin-1-yl)-N-methyl-6-(trifluoromethyl)nicotinamide] | 170
CN(C(=O)c1cc2cc(C(F)(F)F)cnc2[nH]1)[C@@H]1COCc2[nH]c(=O)c3cc(F)c(F)cc3c21 [Compound 214, (S)-N-(8,9-difluoro-6-oxo-1,4,5,6-tetrahydro-2H-pyrano[3,4-c]isoquinolin-1-yl)-N-methyl-5-(trifluoromethyl)-1H-pyrrolo[2,3-b]pyridine-2-carboxamide] | 1000
O=C(N[C@@H]1COCc2[nH]c(=O)c3cc(F)c(F)cc3c21)c1cc2c(F)cc(F)cc2[nH]1 [Compound 157, (S)-N-(8,9-Difluoro-6-oxo-1,4,5,6-tetrahydro-2H-pyrano[3,4-c]isoquinolin-1-yl)-4,6-difluoro-1H-indole-2-carboxamide] | 250
CN(C(=O)c1cc2cc(S(C)(=O)=O)ccc2[nH]1)[C@@H]1COCc2[nH]c(=O)c3cc(F)c(F)cc3c21 [Compound 346, (S)-N-(8,9-Difluoro-6-oxo-1,4,5,6-tetrahydro-2H-pyrano[3,4-c]isoquinolin-1-yl)-N-methyl-5-(methylsulfonyl)-1H-indole-2-carboxamide] | 6700
CN(C(=O)c1ccc2ncccc2c1)[C@@H]1COCc2[nH]c(=O)c3cc(F)c(F)cc3c21 [Compound 67, (S)-N-(8,9-Difluoro-6-oxo-1,4,5,6-tetrahydro-2H-pyrano[3,4-c]isoquinolin-1-yl)-N-methylquinoline-6-carboxamide] | 1600
CN(C(=O)c1ccc(-c2ccc(F)cc2)c(F)c1)[C@@H]1COCc2[nH]c(=O)c3cc(F)c(F)cc3c21 [Compound 262, (S)-N-(8,9-Difluoro-6-oxo-1,4,5,6-tetrahydro-2H-pyrano[3,4-c]isoquinolin-1-yl)-2,4′-difluoro-N-methyl-[1,1′-biphenyl]-4-carboxamide] | 17200
CCc1ccc2[nH]c(C(=O)N(C)[C@@H]3COCc4[nH]c(=O)c5cc(F)c(F)cc5c43)cc2c1 [Compound 328, (S)-N-(8,9-Difluoro-6-oxo-1,4,5,6-tetrahydro-2H-pyrano[3,4-c]isoquinolin-1-yl)-5-ethyl-N-methyl-1H-indole-2-carboxamide] | 3100
CN(C(=O)c1cnc(C(F)(F)F)c(Cl)c1)C1COCc2[nH]c(=O)c3cc(F)ccc3c21 (single isomer, unassigned) [Compound 378, 5-Chloro-N-(8-fluoro-6-oxo-1,4,5,6-tetrahydro-2H-pyrano[3,4-c]isoquinolin-1-yl)-N-methyl-6-(trifluoromethyl)nicotinamide] | 18300
CN(C(=O)c1ccc(C(F)(F)F)c(F)c1)C1COCc2[nH]c(=O)c3cc(C#N)ccc3c21 (racemic) [Compound 134, N-(8-Cyano-6-oxo-1,4,5,6-tetrahydro-2H-pyrano[3,4-c]isoquinolin-1-yl)-3-fluoro-N-methyl-4-(trifluoromethyl)benzamide] | 2800
